{"source": "paper PMC4549042", "about": "“Targeting procaspase-3 with WF-208, a novel PAC-1 derivative, causes selective cancer cell apoptosis” (Journal of Cellular and Molecular Medicine, 2015)", "key": {"[1]": {"system": "HL-60 and U-937 cell lines", "test": "Western blot of Bcl-2 family and IAP proteins in HL-60 and U-937", "assay_type": "cell-based, human", "conditions": "various concentrations, 24 hrs", "experimental": "Approximately 1 × 10^7 HL-60 cells were gathered after pre-treatment with PAC-1 and WF-208 as previously described. The tumour tissue protein was purified according to the reported methods. Western blotting was performed as previously described. All antibodies were purchased from Cell Signaling Technology. In brief, an equal amount of total protein extracts from cultured cells or tissues were fractionated by 10–15% SDS-PAGE and electrically transferred onto polyvinylidene difluoride (PVDF) membranes. Different primary antibodies and corresponding horseradish peroxidase-conjugated secondary antibodies were used to detect the proteins. The bound secondary antibodies on the PVDF membrane were reacted with ECL™ Western Blotting Reagents detection reagents (Thermo Fisher, Rockford, USA) and exposed to X-ray films. Results were normalized to the internal control β-actin."}, "[2]": {"system": "human normal cells", "test": "MTT cytotoxicity in human normal cells", "assay_type": "cell-based", "source_text": "(§1) Human malignant cell lines, A549, Colo-205, DU145, NCI-H226, Hep-3B, Hep-G2, K562, MCF-7, U-87, GBC-SD, MDA-MB-435S, PC-3, U-937, HL60, SH-SY5Y and human normal cell lines, MCF-10A and L-02, HUVEC were obtained from the American Type Culture Collection (Manassas, VA, USA) and National Center for Medical Culture Collection (Shanghai, China). They were routinely cultured in RPMI 1640, DMEM or DMEM/F12 (Gibco, New York, USA) supplemented with 10% foetal bovine serum (Gibco, New York, USA) and maintained at 37°C in a humidified incubator with 5% CO2.\nHuman peripheral blood lymphocytes were obtained as described previously. In brief, after diluting blood with PBS, lymphocytes were isolated by centrifugation over a density gradient of lymphocytes extracting solution for 15 min. at 280 × g. The cells were harvested, washed with PBS twice, and suspended in complete RPMI 1640 (Gibco, New York, USA) with 10% foetal bovine serum (Gibco, New York, USA).\nThe cell viability effects of the tested compounds were determined by MTT assay. Cells (1 × 10^4 cells/100 μl/well) were seeded into 96-well culture plates. After overnight incubation, cells were treated with various concentrations of compounds for 72 hrs. […] The optical density of each well was measured at 570 nm with a Biotek Synergy TM HT Reader."}, "[3]": {"system": "human malignant cell lines", "test": "MTT cytotoxicity in fifteen human malignant cell lines", "assay_type": "cell-based", "conditions": "for IC50: Homo sapiens, MTT, 72 hrs", "source_text": "as §1\n(§2) The cell viability effects of the tested compounds were determined by MTT assay. Cells (1 × 10^4 cells/100 μl/well) were seeded into 96-well culture plates. After overnight incubation, cells were treated with various concentrations of compounds for 72 hrs. Subsequently, 10 μl MTT solution (2.5 mg/ml in PBS) was added to each well, than the cells were incubated for an additional 3–4 hrs at 37°C. After centrifugation (200 × g, 10 min.), the medium with MTT was aspirated, followed by the addition of 100 μl DMSO. The optical density of each well was measured at 570 nm with a Biotek Synergy TM HT Reader."}, "[4]": {"system": "procaspase-3-silenced HL-60 cells", "test": "Cytotoxicity in procaspase-3 silenced HL-60 cells", "assay_type": "cell-based, human", "conditions": "different concentrations, 24 hrs, vs scrambled siRNA control", "experimental": "as §2, with “After overnight incubation, cells were treated with various concentrations of compounds for 72 hrs.” left out\n(§3) HL-60 cells were transfected with procaspase-3 siRNA (Invitrogen, New York, USA, 100 nmol/l final concentration, Sense siRNA Sequence: GUCUAACUGGAAAACCCAAtt Antisense siRNA Sequence: UUGGGUUUUCCAGUUAGACtt) by Lipofectamine 2000 (Invitrogen) according to the manufacturer’s instructions. Scrambled siRNA (Invitrogen) was control. The cDNA of human procaspase-3 was cloned into pIRES2-EGFP expression vector, and procaspase-3 and EGFP genes were separately expressed. The pIRES2-EGFP and pIRES2-EGFP-procaspase-3 were transiently transfected into MCF-7 cells. Expression of procaspase-3 was verified by western blotting."}, "[5]": {"system": "MCF-7 cells transfected with procaspase-3", "test": "Cytotoxicity in MCF-7 cells transfected with procaspase-3", "assay_type": "cell-based, human", "conditions": "different concentrations, vs empty vector", "experimental": "as §2, §3"}, "[6]": {"system": "HL-60 cell line", "test": "MTT cell viability assay, HL-60", "assay_type": "cell-based, human", "conditions": "HL-60, 10 μM ZnSO4, 24 hrs"}}, "note": "Like-named read-outs stand apart in the source and are kept apart here.", "data": [{"smiles": "O=C(CN1CCN(Cc2nc(-c3ccc(COc4ccc(Cl)cc4)cc3)no2)CC1)N/N=C/c1ccc(OCc2csc(Cc3ccc4c(c3)OCO4)n2)cc1O", "note": "[C2]", "values": [{"measurement": "expression of Bcl-2 family members Bcl-2, Bcl-xl, Bax and BID", "setting": "[1]", "value": "not changed"}, {"measurement": "expression of XIAP and survivin", "setting": "[1]", "value": "significantly down-regulated"}, {"measurement": "IC50", "setting": "[2]; Figure 3 panel D, read-out: Mean (IC50) of human normal cells", "value": 348, "unit": "µM"}, {"measurement": "IC50", "setting": "[2]; text b44, read-out: mean IC50 value on three different normal cells", "value": 216, "unit": "µM"}, {"measurement": "IC50", "setting": "[3]; range over the cell lines, read-out: IC50 values against tumour cells", "value": "0.08 to 12.8", "unit": "µM"}, {"measurement": "IC50", "setting": "[3]; read-out: overall mean IC50 value in the fifteen malignant cell lines", "value": 1.66, "unit": "µM"}, {"measurement": "fold increase of cytotoxicity (mean IC50) compared with PAC-1", "setting": "[3]; fifteen malignant cell lines", "value": "~20", "unit": "fold"}, {"measurement": "cytotoxic effect in procaspase-3-silenced HL-60 cells", "setting": "[4]", "value": "less than control HL-60 cells"}, {"measurement": "cytotoxic effect in MCF-7 cells transfected with procaspase-3", "setting": "[5]", "value": "more sensitive"}, {"measurement": "cytotoxicity on co-treatment with ZnSO4", "setting": "[6]", "value": "significantly relieved"}]}]}
